Reference: paper PMC7948422, “Repurposing p97 inhibitors for chemical modulation of the bacterial ClpB–DnaK bichaperone system” (The Journal of Biological Chemistry, 2020)
Entries after “also recorded” stand apart in the source; their conditions may differ.

How the values were obtained:
E. coli dnaK103 = assay: Bacterial viability, dnaK103; type: cell-based, Escherichia coli; conditions: 45 °C
Description: (§1) E. coli MC4100, MC4100ΔclpB, dnaK103, and dnaK756 strains were used to determine an influence of DBeQ on bacterial growth and viability. Bacteria were maintained in the LB media, and in the case of the MC4100ΔclpB strain, LB was supplemented with 30 μg/ml kanamycin. All experiments were initiated by preparing overnight cultures inoculated from single colonies and grown at 37 °C. The dnaK103 and dnaK756 overnight cultures were grown at 30 °C. On the following day, the cultures were diluted 100-fold in 10 ml of LB without antibiotics and incubated at 37 °C. The culture optical density was monitored at 600 nm. When absorbance at 600 nm reached 0.4, the culture was divided into 1-ml aliquots and supplemented with 10 μl of DMSO or different concentrations of DBeQ in DMSO. The samples were immediately transferred into an incubator/shaker at temperature 37, 45, or 50 °C. Bacteria were cultured for up to 4 h with shaking (200 RPM). At specific time points, 100 μl of each culture was withdrawn and serially diluted in sterile 0.9% NaCl up to 10^6-fold dilution. To estimate the number of viable cells, 5 μl or 10 μl of the diluted cultures was spread on the LB-agar plate without an antibiotic. […] On the following day, the bacterial colonies were counted and the colony-forming units/ml were calculated.

E. coli ClpB = biological target: T1, E. coli ClpB (Escherichia coli, UniProt P63284); type: biochemical
T1 construct: made in house
T1 sequence (P63284 whole entry): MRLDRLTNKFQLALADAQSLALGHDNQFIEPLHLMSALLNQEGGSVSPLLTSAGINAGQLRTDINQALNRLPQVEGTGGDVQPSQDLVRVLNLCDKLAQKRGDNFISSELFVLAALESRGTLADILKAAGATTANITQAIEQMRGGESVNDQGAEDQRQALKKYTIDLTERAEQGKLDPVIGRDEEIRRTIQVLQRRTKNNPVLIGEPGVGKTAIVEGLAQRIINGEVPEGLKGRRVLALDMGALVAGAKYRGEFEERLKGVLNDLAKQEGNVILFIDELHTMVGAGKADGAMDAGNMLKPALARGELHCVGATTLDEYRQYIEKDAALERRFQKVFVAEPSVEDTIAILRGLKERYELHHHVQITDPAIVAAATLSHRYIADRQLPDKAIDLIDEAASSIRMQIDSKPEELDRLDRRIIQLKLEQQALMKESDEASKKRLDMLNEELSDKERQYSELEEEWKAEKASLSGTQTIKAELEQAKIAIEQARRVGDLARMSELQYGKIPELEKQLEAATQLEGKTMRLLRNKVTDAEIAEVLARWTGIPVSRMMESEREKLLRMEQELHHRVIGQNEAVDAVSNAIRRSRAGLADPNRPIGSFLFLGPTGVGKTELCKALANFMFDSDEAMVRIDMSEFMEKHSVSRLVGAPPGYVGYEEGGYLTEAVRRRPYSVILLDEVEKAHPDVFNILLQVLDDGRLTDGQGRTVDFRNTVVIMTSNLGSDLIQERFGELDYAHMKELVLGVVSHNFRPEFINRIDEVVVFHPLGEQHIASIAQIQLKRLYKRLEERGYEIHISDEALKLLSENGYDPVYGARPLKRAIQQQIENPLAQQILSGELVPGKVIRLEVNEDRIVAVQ
Description: (§2) To determine the ATPase activity, ClpB was diluted to 28 μg/ml (49-nM hexamer) in buffer C (50-mM Tris-HCl, pH 7.4, 20-mM MgCl2, 1-mM EDTA, 0.5-mM tris(2-carboxyethyl)phosphine [TCEP]). In some experiments, the ClpB solution was supplemented with 17.4 μg/ml (10 μM) κ-casein. The ClpB aliquots (18 μl) were mixed with 1 μl of the investigated compounds at different concentrations in 100% DMSO or with DMSO as a control. A sample without ClpB was used as a baseline control. After a 10-min preincubation at 37 or 45 °C, the ATP hydrolysis reaction was initiated by adding 1 μl of 100-mM ATP. The samples were incubated for 60 min (basal ClpB activity in the absence of κ-casein) or 15 min (in the presence of κ-casein) at 37 °C or 30 min at 45 °C in the absence of casein. For the E678Q ClpB variant, the incubation time in the presence of κ-casein was 60 min. After incubation, 15 μl of each sample was mixed with 200 μl of the ammonium molybdate/malachite green reagent ([67]) dispensed into a 96-well plate, followed by an addition of 30 μl of 34% sodium citrate ([68]). The plate was agitated inside a Synergy H1 reader (BioTek, Winooski, VT) for 15 min at room temperature, and the samples’ absorbance was measured at 630 nm. The readouts for ClpB-containing samples were corrected for absorbance of samples without ClpB, to account for nonenzymatic production of inorganic phosphate. A standard curve obtained with different inorganic phosphate concentrations was used to determine the amount of phosphate produced from ATP in the presence of ClpB.

[1] = tested on: ΔclpB E. coli expressing ClpB–YFP; assay: Viability of ΔclpB strain expressing ClpB-YFP; type: cell-based, Escherichia coli; conditions: 45 °C, 3 h
Description: as §1, with “RPM).” for “RPM). At specific time points, 100 μl of each culture was withdrawn and serially diluted in sterile 0.9% NaCl up to 10^6-fold dilution. To estimate the number of viable cells, 5 μl or 10 μl of the diluted cultures was spread on the LB-agar plate without an antibiotic.”
Supplementary Figure 10. […] (Top) ClpB was detected using Western blotting. […]
(Bottom) Western blot analysis of the bacterial lysates with anti-ClpB antibody. […] The detected signals correspond to the full-length ClpB-YFP (ClpB95-YFP) and the N-terminally truncated ClpB80-YFP (1,2). […]

[2] = tested on: ClpB W462F, W543F, W462F/W543F; assay: Basal ATPase activity of ClpB Trp/Phe variants; type: biochemical, Escherichia coli; conditions: absence of casein
Description: as §2, with “A standard curve obtained with different inorganic phosphate concentrations was used to determine the amount of phosphate produced from ATP in the presence of ClpB.” left out

firefly luciferase = firefly luciferase (Photinus pyralis, UniProt P08659); assay: Native firefly luciferase activity; type: biochemical; conditions: 100 µM compound
Sequence of firefly luciferase (P08659 whole entry): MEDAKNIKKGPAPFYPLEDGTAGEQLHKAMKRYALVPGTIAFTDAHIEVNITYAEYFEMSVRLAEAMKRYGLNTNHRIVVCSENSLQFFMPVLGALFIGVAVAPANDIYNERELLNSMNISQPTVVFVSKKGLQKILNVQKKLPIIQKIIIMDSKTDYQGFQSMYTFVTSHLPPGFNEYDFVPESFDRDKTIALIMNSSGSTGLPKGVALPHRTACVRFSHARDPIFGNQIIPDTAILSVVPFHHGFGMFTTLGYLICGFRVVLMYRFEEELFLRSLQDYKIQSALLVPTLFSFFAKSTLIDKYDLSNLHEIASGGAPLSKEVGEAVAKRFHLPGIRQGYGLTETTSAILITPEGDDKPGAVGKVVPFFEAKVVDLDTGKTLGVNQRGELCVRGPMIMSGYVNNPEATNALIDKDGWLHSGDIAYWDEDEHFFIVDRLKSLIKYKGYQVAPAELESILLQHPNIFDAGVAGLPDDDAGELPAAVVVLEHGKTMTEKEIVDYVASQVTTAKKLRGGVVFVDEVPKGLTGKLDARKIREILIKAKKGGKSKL

E. coli MC4100ΔclpB = assay: Bacterial growth and viability, MC4100ΔclpB; type: cell-based, Escherichia coli; conditions: 37 °C
Description: as §1

ClpB E279Q, E678Q = assay: ATPase activity of ClpB Walker B variants E279Q and E678Q; type: biochemical, Escherichia coli; conditions: with/without κ-casein
Description: as §2, with “A standard curve obtained with different inorganic phosphate concentrations was used to determine the amount of phosphate produced from ATP in the presence of ClpB.” left out

E. coli dnaK756 = assay: Bacterial viability, dnaK756; type: cell-based, Escherichia coli; conditions: 45 °C
Description: as §1

Which results are given for `c1ccc(CNc2nc(NCc3ccccc3)c3ccccc3n2)cc1` [DBeQ, N^2,N^4-dibenzylquinazoline-2,4-diamine]?
effect on viability of dnaK103 (E. coli dnaK103): suppressed viability; inhibition of the basal ClpB ATPase (E. coli ClpB; 100 μM compound, no casein, 37 °C): None of the above compounds, except C3, showed a significant inhibition; inhibition of the ClpB ATPase in the presence of casein (E. coli ClpB; 100 μM compound, with κ-casein, 37 °C): strongly inhibited; effect on basal ClpB ATPase under heat-shock conditions (E. coli ClpB; 45 °C, no casein): unaffected; also recorded: does not inhibit; susceptibility of ΔclpB strain on expression of ClpB–YFP [1]: susceptibility to DBeQ was restored; inhibition of basal ATPase of Trp/Phe ClpB variants [2]: became sensitive to inhibition; effect on native luciferase activity (firefly luciferase): not affected; effect on growth of ΔclpB strain (E. coli MC4100ΔclpB): nearly eliminated; also recorded: effects were eliminated; effect on ATPase of the two ATP-binding domains (D1, D2) (ClpB E279Q, E678Q): only the C-terminal one (i.e., D2) showed casein-induced activation and was affected by DBeQ; effect on viability of dnaK756 (E. coli dnaK756): not affected
